Experimental data reported in patent US20130273656A1, “METHOD TO INCREASE GENE TARGETING FREQUENCY” (Regents of the University of Minnesota, priority 2010, published 2013).
Entries after “also recorded” stand apart in the source; their conditions may differ.

Legend:
[1] = test system: HCT116 cells; assay: rAAV-mediated gene targeting of the CCR5 locus in HCT116 cells, correct targeting scored by diagnostic PCR of G418-resistant clones; format: cell-based, human
Protocol: The human colon cancer cell line HCT116 was obtained from the American Type Culture Collection and maintained in McCoy's 5A media (Mediatech Inc.) containing 10% heat inactivated fetal calf serum (Cambrex), 2 mM L-glutamine, 100 U/ml penicillin and […] streptomycin (Invitrogen). The cells were grown at 37° C. in a humidified incubator with 5% CO2. Cell lines derived from correct targeting events were grown either in the presence of 1 mg/ml G418 or 1 μg/mL puromycin.
The targeting vectors, Ku70-Neo (Fattah et al., DNA Repair, 2008, 7:762-774) and CCR5-Neo (Fattah et al., PNAS, 2008, 105:8703-8708), were constructed by using the rAAV system as described (Kohli et. al., Nucl. Acids Res., 2004, 32:e3). All virus packaging and infections were performed as described (Kohli et. al., Nucl. Acids Res., 2004, 32:e3).
Genomic DNA for PCR screening was isolated by using phenol extraction followed by ethanol precipitation. DNA-PKcs- and CCR5-targeting events were identified by PCR using conditions described elsewhere (Ruis et. al., Mol. Cell. Biol., 2008, 28:6182-6195; Kohli et. al., Nucl. Acids Res., 2004, 32:e3). The primers used to screen for DNA-PKcs targeting events were LArmR, […] (SEQ ID NO:5) and PKcs81-83F1, […]. (SEQ ID NO:6) The primers used to screen for CCR5 targeting events were CF, GCACCATGCTTGACCCAG (SEQ ID NO:7) and NR, […] (SEQ ID NO:8). […]

[2] = target: T1, DNA-PK complex (Homo sapiens, UniProt P78527); assay: DNA-PK complex kinase activity in extracts of treated cells, standard p53 peptide assay; format: cell-based; settings: HCT116 cells treated with 10 μM at time 0 and at 4 hr post-infection
T1 construct: whole cell extracts were prepared from a portion of the cells and assayed for DNA-PK complex kinase activity; endogenous in cells; host or cells: HCT116 (controls: MO59J, MO59K)
Protocol: Nuclear extracts were incubated on ice for 15 min with preswollen dsDNA-cellulose (Sigma). Nuclear extract (100 μg) was used with each sample. Following incubation on ice, the samples were washed twice in Z′ 0.05 buffer (25 mM HEPES-KOH, 50 mM KCl, 10 mM MgCl2, 20% glycerol, 0.1% IGEPAL™, 1 mM dithiothreitol). After the washing steps, the samples were centrifuged and the precipitate was resuspended in 100 μl Z′ 0.05 buffer. […] The wild-type peptide can be phosphorylated by DNA-PK at the serine residue, while the mutant peptide is not recognized by DNA-PK. Following incubation, polyacrylamide gel electrophoresis was carried out. The gel was vacuum dried and exposed to X-ray film. The amount of phosphorylated peptide was quantified using a phosphorimager.

SMILES: O=c1cc(N2CCOCC2)oc2c(-c3cccc4c3sc3ccccc34)cccc12 [NU7441, 8-dibenzothiophen-4-yl-2-morpholin-4-yl-chromen-4-one]
- increase of frequency of gene targeting ([1]; DNA-PKcs kinase inhibition by NU7441, rAAV CCR5 vector, compared to wild-type cells): ~7 fold
- correct gene targeting frequency ([1]; HCT116, 10 μM NU7441 at time 0 and again at 4 hr post-infection, rAAV CCR5 vector, 17 of 229 G418-resistant clones): 7.4%
- duration of DNA-PK / DNA-PKcs inhibition [2]: a matter of hours; also recorded: several hours
- DNA-PK activity ([2]; whole cell extracts): nearly completely ablated
